Results taken from patent US20240148821A1, “PHARMACEUTICAL USE OF CYCLIC PEPTIDE COMPOUND” (CHUGAI SEIYAKU KABUSHIKI KAISHA, priority 2021, published 2024).
Numbered stars: 1 amine (or outer) side, 2 acyl side, 3 side chain; on linkers, the order of the positions; unused ones are H or OH. Bridge positions count the residues as written; N and C are the ends. Square brackets hold non-standard residues; d marks the D form. Peptide text beside a SMILES is read from it. * marks the point of attachment. X45 = CN([C@@H](CC=C1CN(C(=O)OC(C)(C)C)C1)C(=O)[*:2])[*:1]; hPhe(3-Cl-4-CF3) = N[C@@H](CCc1ccc(C(F)(F)F)c(Cl)c1)C(=O)O; X46 = CN([C@@H](CCC1CN(C(=O)OC(C)(C)C)C1)C(=O)[*:2])[*:1]; X13 = O=C([C@H](CCc1ccc(OC(F)(F)F)c(Cl)c1)N[*:1])[*:2]; X21 = O=C([C@H](CCc1ccc(OC(F)(F)F)c(F)c1)N[*:1])[*:2]; X8 = CC(C)Oc1cc(CC[C@H](N[*:1])C(=O)[*:2])cc(Cl)c1Cl; X15 = O=C([C@H](CCc1cc(Cl)c(Cl)c(Cl)c1)N[*:1])[*:2]; X65 = O=C([C@H](CCCc1ccc(C(F)(F)F)cc1)N[*:1])[*:2]; X11 = O=C([C@H](CCc1ccc2occc2c1)N[*:1])[*:2]; X41 = CN([C@@H](CC=C1CCOCC1)C(=O)[*:2])[*:1]; X119 = CN(C)C(=O)CCCN(CC(=O)[*:2])[*:1]; NMeGly(cPent) = CN[C@H](C(=O)O)C1CCCC1; X127 = COC/C=C/CN(CC(=O)[*:2])[*:1]; NMeCha = CN[C@@H](CC1CCCCC1)C(=O)O; NMeChg = CN[C@H](C(=O)O)C1CCCCC1; NMeD = CN[C@@H](CC(=O)O)C(=O)O; NMeL = CN[C@@H](CC(C)C)C(=O)O; NMeA = CN[C@@H](C)C(=O)O; Piperidide = C1CCN(*)CC1; Ac5c = NC1(C(=O)O)CCCC1; Aze = O=C(O)[C@@H]1CCN1; Sar = CNCC(=O)O

Molecular target: protein-protein interaction between Kras and SOS1 (biotin-tagged human Kras loaded with GDP, His-tagged human SOS1) (Homo sapiens (Human), UniProt P01116, G12D)
Test: Protein-protein interaction inhibition between Kras and SOS1 (KrasG12D-SOS PPI) using AlphaScreen;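 further: kras produced in E. coli, Ni-coupled donor beads and streptavidin acceptor beads, excitation 680 nm with emission detected at 520–620 nm via singlet oxygen transfer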
Format: biochemical
Conditions: not given

SMILES | IC50 [nM]
CC[C@H](C)[C@@H]1NC(=O)[C@H](CC(C)C)N(C)C(=O)C[C@@H](C(=O)N2CCCCC2)N(C)C(=O)[C@H](C2CCCCC2)N(C)C(=O)C2(CCCC2)NC(=O)CN(CCCC(=O)N(C)C)C(=O)[C@H](CCc2ccc(C(F)(F)F)c(Cl)c2)NC(=O)CN(C)C(=O)[C@H](CC2CCCCC2)N(C)C(=O)CN(C)C(=O)CN(C)C1=O [Compound 2052, 4-[(11S,17S,26S,29S,33S,36S)-11-[2-[3-chloro-4-(trifluoromethyl)phenyl]ethyl]-36-cyclohexyl-17-(cyclohexylmethyl)-29-isobutyl-15,18,21,24,30,34,37-heptamethyl-26-[(1S)-1-methylpropyl]-7,10,13,16,19,22,25,28,31,35,38-undecaoxo-33-(piperidine-1-carbonyl)-6,9,12,15,18,21,24,27,30,34,37-undecazaspiro[4.33]octatriacontan-9-yl]-N,N-dimethyl-butanamide] ([NMeL]I[Sar][Sar][NMeCha][Sar][hPhe(3-Cl-4-CF3)][X119][Ac5c][NMeChg][NMeD]-Piperidide; lactam N-11) | 4.9

Same assay, conditions: AlphaScreen; biotin-tagged human Kras loaded with GDP, His-tagged human SOS1; read-out: KRAS G12D-SOS PPI IC50

SMILES | IC50 [nM]
CC[C@H](C)[C@@H]1NC(=O)[C@H](CC(C)C)N(C)C(=O)C[C@@H](C(=O)N2CCCCC2)N(C)C(=O)[C@H](C2CCCCC2)N(C)C(=O)C2(CCCC2)NC(=O)[C@H](CC=C2CN(C(=O)OC(C)(C)C)C2)N(C)C(=O)[C@H](CCc2ccc(C(F)(F)F)c(Cl)c2)NC(=O)CN(C)C(=O)[C@H](CC2CCCCC2)N(C)C(=O)CN(C)C(=O)CN(C)C1=O [Compound 2050, tert-butyl 3-[2-[(8S,11S,17S,26S,29S,33S,36S)-11-[2-[3-chloro-4-(trifluoromethyl)phenyl]ethyl]-36-cyclohexyl-17-(cyclohexylmethyl)-29-isobutyl-9,15,18,21,24,30,34,37-octamethyl-26-[(1S)-1-methylpropyl]-7,10,13,16,19,22,25,28,31,35,38-undecaoxo-33-(piperidine-1-carbonyl)-6,9,12,15,18,21,24,27,30,34,37-undecazaspiro[4.33]octatriacontan-8-yl]ethylidene]azetidine-1-carboxylate] ([NMeL]I[Sar][Sar][NMeCha][Sar][hPhe(3-Cl-4-CF3)][X45][Ac5c][NMeChg][NMeD]-Piperidide; lactam N-11) | 51
CC[C@H](C)[C@@H]1NC(=O)[C@H](CC(C)C)N(C)C(=O)C[C@@H](C(=O)N2CCCCC2)N(C)C(=O)[C@H](C2CCCCC2)N(C)C(=O)C2(CCCC2)NC(=O)CN(C/C=C/COC)C(=O)[C@H](CCc2ccc(C(F)(F)F)c(Cl)c2)NC(=O)CN(C)C(=O)[C@H](CC2CCCCC2)N(C)C(=O)CN(C)C(=O)CN(C)C1=O [Compound 2051, (11S,17S,26S,29S,33S,36S)-11-[2-[3-chloro-4-(trifluoromethyl)phenyl]ethyl]-36-cyclohexyl-17-(cyclohexylmethyl)-29-isobutyl-9-[(E)-4-methoxybut-2-enyl]-15,18,21,24,30,34,37-heptamethyl-26-[(1S)-1-methylpropyl]-33-(piperidine-1-carbonyl)-6,9,12,15,18,21,24,27,30,34,37-undecazaspiro[4.33]octatriacontane-7,10,13,16,19,22,25,28,31,35,38-undecone] ([NMeL]I[Sar][Sar][NMeCha][Sar][hPhe(3-Cl-4-CF3)][X127][Ac5c][NMeChg][NMeD]-Piperidide; lactam N-11) | 2.5
CC[C@H](C)[C@@H]1NC(=O)[C@H](CC(C)C)N(C)C(=O)C[C@@H](C(=O)N2CCCCC2)N(C)C(=O)[C@H](C2CCCCC2)N(C)C(=O)C2(CCCC2)NC(=O)[C@H](CC=C2CCOCC2)N(C)C(=O)[C@H](CCc2ccc(C(F)(F)F)c(Cl)c2)NC(=O)CN(C)C(=O)[C@H](CC2CCCCC2)N(C)C(=O)CN(C)C(=O)CN(C)C1=O [Compound 2053, (8S,11S,17S,26S,29S,33S,36S)-11-[2-[3-chloro-4-(trifluoromethyl)phenyl]ethyl]-36-cyclohexyl-17-(cyclohexylmethyl)-29-isobutyl-9,15,18,21,24,30,34,37-octamethyl-26-[(1S)-1-methylpropyl]-33-(piperidine-1-carbonyl)-8-(2-tetrahydropyran-4-ylideneethyl)-6,9,12,15,18,21,24,27,30,34,37-undecazaspiro[4.33]octatriacontane-7,10,13,16,19,22,25,28,31,35,38-undecone] ([NMeL]I[Sar][Sar][NMeCha][Sar][hPhe(3-Cl-4-CF3)][X41][Ac5c][NMeChg][NMeD]-Piperidide; lactam N-11) | 10
CC[C@H](C)[C@@H]1NC(=O)[C@H](C)N(C)C(=O)C[C@@H](C(=O)N2CCCCC2)N(C)C(=O)[C@H](C2CCCCC2)N(C)C(=O)C2(CCCC2)NC(=O)[C@@H]2CCCN2C(=O)[C@H](CCCc2ccc(C(F)(F)F)cc2)NC(=O)CN(C)C(=O)[C@H](CC2CCCCC2)N(C)C(=O)CN(C)C(=O)CN(C)C1=O [Compound 2055, (3S,9S,18S,21S,25S,28S,34S)-28-cyclohexyl-9-(cyclohexylmethyl)-7,10,13,16,21,22,26,29-octamethyl-18-[(1S)-1-methylpropyl]-25-(piperidine-1-carbonyl)-3-[3-[4-(trifluoromethyl)phenyl]propyl]spiro[1,4,7,10,13,16,19,22,26,29,32-undecazabicyclo[32.3.0]heptatriacontane-31,1′-cyclopentane]-2,5,8,11,14,17,20,23,27,30,33-undecone] ([NMeA]I[Sar][Sar][NMeCha][Sar][X65]P[Ac5c][NMeChg][NMeD]-Piperidide; lactam N-11) | 27
CC[C@H](C)[C@@H]1NC(=O)[C@H](CC(C)C)N(C)C(=O)C[C@@H](C(=O)N2CCCCC2)N(C)C(=O)[C@H](C2CCCCC2)N(C)C(=O)C2(CCCC2)NC(=O)[C@H](CCC2CN(C(=O)OC(C)(C)C)C2)N(C)C(=O)[C@H](CCc2ccc(C(F)(F)F)c(Cl)c2)NC(=O)CN(C)C(=O)[C@H](CC2CCCCC2)N(C)C(=O)CN(C)C(=O)CN(C)C1=O [Compound 2056, tert-butyl 3-[2-[(8S,11S,17S,26S,29S,33S,36S)-11-[2-[3-chloro-4-(trifluoromethyl)phenyl]ethyl]-36-cyclohexyl-17-(cyclohexylmethyl)-29-isobutyl-9,15,18,21,24,30,34,37-octamethyl-26-[(1S)-1-methylpropyl]-7,10,13,16,19,22,25,28,31,35,38-undecaoxo-33-(piperidine-1-carbonyl)-6,9,12,15,18,21,24,27,30,34,37-undecazaspiro[4.3 3]octatriacontan-8-yl]ethyl]azetidine-1-carboxylate] ([NMeL]I[Sar][Sar][NMeCha][Sar][hPhe(3-Cl-4-CF3)][X46][Ac5c][NMeChg][NMeD]-Piperidide; lactam N-11) | 13
CC[C@H](C)[C@@H]1NC(=O)[C@H](CC(C)C)N(C)C(=O)C[C@@H](C(=O)N2CCCCC2)N(C)C(=O)[C@H](C2CCCC2)N(C)C(=O)C2(CCCC2)NC(=O)[C@@H]2CCCN2C(=O)[C@H](CCc2ccc(OC(F)(F)F)c(Cl)c2)NC(=O)CN(C)C(=O)[C@H](CC2CCCCC2)N(C)C(=O)[C@@H]2CCN2C(=O)[C@H](C)N(C)C1=O [Compound 2057] ([NMeL]I[NMeA][Aze][NMeCha][Sar][X13]P[Ac5c][NMeGly(cPent)][NMeD]-Piperidide; lactam N-11 (inferred); C-terminus assumed) | 1.1
CC[C@H](C)[C@@H]1NC(=O)[C@H](C)N(C)C(=O)C[C@@H](C(=O)N2CCCCC2)N(C)C(=O)[C@H](C2CCCCC2)N(C)C(=O)C2(CCCC2)NC(=O)[C@@H]2CCCN2C(=O)[C@H](CCc2cc(Cl)c(Cl)c(Cl)c2)NC(=O)CN(C)C(=O)[C@H](CC2CCCCC2)N(C)C(=O)CN(C)C(=O)CN(C)C1=O [Compound 2059, (3S,9S,18S,21S,25S,28S,34S)-28-cyclohexyl-9-(cyclohexylmethyl)-7,10,13,16,21,22,26,29-octamethyl-18-[(1S)-1-methylpropyl]-25-(piperidine-1-carbonyl)-3-[2-(3,4,5-trichlorophenyl)ethyl]spiro[1,4,7,10,13,16,19,22,26,29,32-undecazabicyclo[32.3.0]heptatriacontane-31,1′-cyclopentane]-2,5,8,11,14,17,20,23,27,30,33-undecone] ([NMeA]I[Sar][Sar][NMeCha][Sar][X15]P[Ac5c][NMeChg][NMeD]-Piperidide; lactam N-11) | 0.96
CC[C@H](C)[C@@H]1NC(=O)[C@H](C)N(C)C(=O)C[C@@H](C(=O)N2CCCCC2)N(C)C(=O)[C@H](C2CCCCC2)N(C)C(=O)C2(CCCC2)NC(=O)[C@@H]2CCCN2C(=O)[C@H](CCc2cc(Cl)c(Cl)c(OC(C)C)c2)NC(=O)CN(C)C(=O)[C@H](CC2CCCCC2)N(C)C(=O)CN(C)C(=O)CN(C)C1=O [Compound 2062] ([NMeA]I[Sar][Sar][NMeCha][Sar][X8]P[Ac5c][NMeChg][NMeD]-Piperidide; lactam N-11) | 6.9
CC[C@H](C)[C@@H]1NC(=O)[C@H](CC(C)C)N(C)C(=O)C[C@@H](C(=O)N2CCCCC2)N(C)C(=O)[C@H](C2CCCC2)N(C)C(=O)C2(CCCC2)NC(=O)[C@@H]2CCCN2C(=O)[C@H](CCc2ccc3occc3c2)NC(=O)CN(C)C(=O)[C@H](CC2CCCCC2)N(C)C(=O)[C@@H]2CCN2C(=O)[C@H](C)N(C)C1=O [Compound 2063] ([NMeL]I[NMeA][Aze][NMeCha][Sar][X11]P[Ac5c][NMeGly(cPent)][NMeD]-Piperidide; lactam N-11 (inferred); C-terminus assumed) | 8.8
CC[C@H](C)[C@@H]1NC(=O)[C@H](CC(C)C)N(C)C(=O)C[C@@H](C(=O)N2CCCCC2)N(C)C(=O)[C@H](C2CCCC2)N(C)C(=O)C2(CCCC2)NC(=O)[C@@H]2CCCN2C(=O)[C@H](CCc2ccc(OC(F)(F)F)c(F)c2)NC(=O)CN(C)C(=O)[C@H](CC2CCCCC2)N(C)C(=O)[C@@H]2CCN2C(=O)[C@H](C)N(C)C1=O [Compound 2067] ([NMeL]I[NMeA][Aze][NMeCha][Sar][X21]P[Ac5c][NMeGly(cPent)][NMeD]-Piperidide; lactam N-11 (inferred); C-terminus assumed) | 0.84
